# Measurements as given in patent US6812226B2, “P2X7 receptor antagonists for use in the treatment of inflammatory, immune or cardiovascular disease” (AstraZeneca AB, priority 1999, dated 2004).
row,SMILES,melting point [°C]
1,O=C1OCc2ccccc2N1C1CCN(c2ccc(NCc3ncc[nH]3)cc2Cl)CC1,222 to 224
2,CC(C)NC(=O)c1ccc(N2CCC(N3C(=O)OCc4ccccc43)CC2)c(S(C)(=O)=O)c1,240 to 242
3,COC(=O)c1ccccc1C(=O)c1ccc(N2CCC(N3C(=O)OCc4ccc(Cl)cc43)CC2)c([N+](=O)[O-])c1,90 to 92
4,COC(=O)c1ccccc1C(=O)c1ccc(N2CCC(N3C(=O)OCc4ccccc43)CC2)c([N+](=O)[O-])c1,177 to 179
5,CC(C)NC(=O)c1ccc(N2CCC(N3C(=O)OCc4ccccc43)CC2)c([N+](=O)[O-])c1,193 to 195
6,"CC(C)NC(=O)c1cnc(N2CCC(n3c(=O)oc4ccccc43)CC2)c(Cl)c1 [Example 166, 5-Chloro-N-(1-methylethyl)-6-[4-(2-oxo-1,3-benzoxazol-3(2H)-yl)piperidin-1-yl]pyridine-3-carboxantide]",162 to 168
7,CC(C)NC(=O)c1cnc(N2CC[C@H](N3C(=O)OCc4ccccc43)[C@@H](C)C2)c(Cl)c1.Cl,195
8,CN1CCC[C@H]1C(=O)Nc1ccc(N2CCC(N3C(=O)OCc4ccccc43)CC2)c(Cl)c1,155
9,CC(C)S(=O)(=O)Nc1ccc(N2CCC(N3C(=O)OCc4ccccc43)CC2)c(Cl)c1,175
10,CC(C)NC(=O)c1csc(N2CCC(N3C(=O)OCc4ccccc43)CC2)n1,214 to 215
11,CC(C)NC(=O)c1ccc(N2CCC(N3C(=O)OCc4ccccc43)CC2)nn1,120
12,O=C(O)c1ccccc1C(=O)c1ccc(N2CCC(N3C(=O)OCc4ccccc43)CC2)c([N+](=O)[O-])c1,243 to 244
13,CC(C)C[C@H](NC(=O)c1cnc(N2CCC(N3C(=O)OCc4ccccc43)CC2)c(Cl)c1)C(N)=O,139 to 142
14,O=C(O)c1ccccc1C(=O)c1ccc(N2CCC(N3C(=O)CCc4ccccc43)CC2)c([N+](=O)[O-])c1,201 to 203
15,CC(C)NC(=O)c1cnc(N2CCC(N3C(=O)OCc4ccccc43)CC2)nc1C(F)(F)F,217 to 219
16,CC(C)C[C@@H](NC(=O)c1cnc(N2CCC(N3C(=O)OCc4ccccc43)CC2)c(Cl)c1)C(N)=O,139 to 142
17,CC(C)C(=O)Nc1ccc(N2CCC(N3C(=O)OCc4ccccc43)CC2)c(Cl)c1,228
18,CC(C)[C@@H](NC(=O)c1cnc(N2CCC(N3C(=O)OCc4ccccc43)CC2)c(Cl)c1)C(N)=O,140 to 143
19,COCCNC(=O)c1ccc(N2CCC(N3C(=O)OCc4ccccc43)CC2)c([N+](=O)[O-])c1,192 to 193
20,O=C(c1ccccc1)c1ccc(N2CCC(N3C(=O)OCc4ccccc43)CC2)c([N+](=O)[O-])c1,272 to 273
21,CC(C)NC(=O)c1ccc(N2CCC(N3C(=O)OCc4ccccc43)CC2)c(C#N)c1,200
22,CC(C)NC(=O)c1cnc(N2CCC(N3C(=O)OCc4ccccc43)CC2)nc1,236 to 239
23,Nc1ccc(N2CCC(N3C(=O)OCc4ccccc43)CC2)c(Cl)c1,158
24,N#CC(NC(=O)c1cnc(N2CCC(N3C(=O)OCc4ccccc43)CC2)c(Cl)c1)C(N)=O (centres unmarked),159 to 162
25,CC(CO)NC(=O)c1cnc(N2CCC(N3C(=O)OCc4ccccc43)CC2)c(Cl)c1 (centres unmarked),125 to 128
26,NC(=O)c1ccccc1C(=O)c1ccc(N2CCC(N3C(=O)OCc4ccccc43)CC2)c([N+](=O)[O-])c1,180 to 182
27,CC(C)NC(=O)c1cnc(N2CCC(N3C(=O)COc4ccccc43)CC2)c(Cl)c1,85 to 88
28,CC(C)NS(=O)(=O)c1ccc(N2CCC(N3C(=O)OCc4ccccc43)CC2)c([N+](=O)[O-])c1,168
29,C#CC(C)(C)NC(=O)c1cnc(N2CCC(N3C(=O)OCc4ccccc43)CC2)c(Cl)c1,135 to 138
